Each structure is given as a SMILES string.

The assay has as its target recombinant DYRK1A kinase (Homo sapiens (Human), UniProt Q13627). The assay is described as follows: DYRK1A kinase assay (Ser/Thr 18 peptide Z-lyte FRET assay). Type of assay: biochemical. The note with it: DYRK1A 0.25 μg/mL, ATP 15 μM, Ser/Thr peptide 18 4 μM; one hour at room temperature; 11-point dose-response, duplicate. In a few lines:
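Z-lyte FRET assay on Ser/Thr 18 peptide, kinase activity read as coumarin/fluorescein emission ratio; compounds incubated 1 h at room temperature, then development reagent 1 h, in duplicate. Phosphorylated and unphosphorylated peptide served as controls; IC50 by non-linear regression of dose-response curves.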
As a reminder, the IC50 is the concentration needed to halve the response being measured. As to `[2H]C([2H])([2H])Nc1nc(N[C@@H]2CCN(CC)CC2(F)F)nn2ccc(-c3ccc4nc(C)n(CC(F)F)c4n3)c12` [Compound 385, (R)-5-(3-(2,2-Difluoroethyl)-2-methyl-3H-imidazo[4,5-b]pyridin-5-yl)-N^2-(1-ethyl-3,3-difluoropiperidin-4-yl)-N^4-(methyl-d3)pyrrolo[2,1-f][1,2,4]triazine-2,4-diamine], the IC50 stood at 4.6 nM. For `CNc1nc(N[C@@H]2CCN(C3CC3)CC2(F)F)nn2ccc(-c3ccc4nc(C)n(CC(F)F)c4n3)c12` [Compound 386, (R)—N^2-(1-Cyclopropyl-3,3-difluoropiperidin-4-yl)-5-(3-(2,2-difluoroethyl)-2-methyl-3H-imidazo[4,5-b]pyridin-5-yl)-N^4-methylpyrrolo[2,1-f][1,2,4]triazine-2,4-diamine], the IC50 is 4.6 nM.

For `CNc1nc(N[C@H]2CCN(C3CC3)CC2(F)F)nn2ccc(-c3ccc4nc(C)n(CC(F)F)c4n3)c12` [Compound 387, (S)—N^2-(1-Cyclopropyl-3,3-difluoropiperidin-4-yl)-5-(3-(2,2-difluoroethyl)-2-methyl-3H-imidazo[4,5-b]pyridin-5-yl)-N^4-methylpyrrolo[2,1-f][1,2,4]triazine-2,4-diamine], the IC50 is 12.8 nM. Regarding `[2H]C([2H])([2H])Nc1nc(N[C@@H]2CCN(C3COC3)CC2(F)F)nn2ccc(-c3ccc4nc(C)n(CC(F)F)c4n3)c12` [Compound 388, (R)—N^2-(3,3-Difluoro-1-(oxetan-3-yl)piperidin-4-yl)-5-(3-(2,2-difluoroethyl)-2-methyl-3H-imidazo[4,5-b]pyridin-5-yl)-N^4-(methyl-d3)pyrrolo[2,1-f][1,2,4]triazine-2,4-diamine], the IC50 amounted to 4.7 nM. `CNc1nc(NC2CCC3(CC2)OCCO3)nn2ccc(-c3ccc4nc(C)n(CC(F)F)c4n3)c12` [Compound 389, 5-(3-(2,2-Difluoroethyl)-2-methyl-3H-imidazo[4,5-b]pyridin-5-yl)-N^4-methyl-N^2-(1,4-dioxaspiro[4.5]decan-8-yl)pyrrolo[2,1-f][1,2,4]triazine-2,4-diamine]: the IC50 came out at 1.8 nM. Turning to `CNc1nc(N[C@H]2CC[C@@](C)(O)CC2)nn2ccc(-c3ccc4nc(C)n(CC(F)(F)F)c4n3)c12` [Compound 441, (1s,4s)-1-Methyl-4-((5-(2-methyl-3-(2,2,2-trifluoroethyl)-3H-imidazo[4,5-b]pyridin-5-yl)-4-(methylamino)pyrrolo[2,1-f][1,2,4]triazin-2-yl)amino)cyclohexan-1-ol], the IC50 stood at 0.7 nM. Turning to `CNc1nc(N[C@H]2CC[C@](C)(O)CC2)nn2ccc(-c3ccc4nnn(CC(F)F)c4n3)c12` [Compound 465, (1r,4r)-4-((5-(3-(2,2-Difluoroethyl)-3H-[1,2,3]triazolo[4,5-b]pyridin-5-yl)-4-(methylamino)pyrrolo[2,1-f][1,2,4]triazin-2-yl)amino)-1-methylcyclohexan-1-ol], the IC50 was determined as 1.4 nM. The value for `CNc1nc(N[C@H]2CCN(C3COC3)C[C@H]2F)nn2ccc(-c3ccc4nnn(CC(F)F)c4n3)c12` [Compound 474, 5-(3-(2,2-Difluoroethyl)-3H-[1,2,3]triazolo[4,5-b]pyridin-5-yl)-N^2-((3R,4S)-3-fluoro-1-(oxetan-3-yl)piperidin-4-yl)-N^4-methylpyrrolo[2,1-f][1,2,4]triazine-2,4-diamine] was 1.3 nM. The value for `CNc1nc(N[C@@H]2CCN(C)CC2(F)F)nn2ccc(-c3ccc4nnn(CC(F)F)c4n3)c12` [Compound 479, (R)—N^2-(3,3-Difluoro-1-methylpiperidin-4-yl)-5-(3-(2,2-difluoroethyl)-3H-[1,2,3]triazolo[4,5-b]pyridin-5-yl)-N4-methylpyrrolo[2,1-f][1,2,4]triazine-2,4-diamine] was 0.6 nM; that for `CNc1nc(N[C@@H]2CCN(C3COC3)CC2(F)F)nn2ccc(-c3ccc4nnn(CC(F)F)c4n3)c12` [Compound 480, (R)—N^2-(3,3-Difluoro-1-(oxetan-3-yl)piperidin-4-yl)-5-(3-(2,2-difluoroethyl)-3H-[1,2,3]triazolo[4,5-b]pyridin-5-yl)-N^4-methylpyrrolo[2,1-f][1,2,4]triazine-2,4-diamine] was 1.3 nM. Consider `CCNc1nc(N[C@@H]2CCNCC2(F)F)nn2ccc(-c3ccc4nc(C)n(CC(F)F)c4n3)c12` [Compound 482, (R)-5-(3-(2,2-Difluoroethyl)-2-methyl-3H-imidazo[4,5-b]pyridin-5-yl)-N^2-(3,3-difluoropiperidin-4-yl)-N^4-ethylpyrrolo[2,1-f][1,2,4]triazine-2,4-diamine], for which the IC50 is 3.1 nM. Next, `CCNc1nc(N[C@@H]2CCN(C)CC2(F)F)nn2ccc(-c3ccc4nc(C)n(CC(F)F)c4n3)c12` [Compound 483, (R)—N^2-(3,3-difluoro-1-methylpiperidin-4-yl)-5-(3-(2,2-difluoroethyl)-2-methyl-3H-imidazo[4,5-b]pyridin-5-yl)-N^4-ethylpyrrolo[2,1-f][1,2,4]triazine-2,4-diamine]: 3.6 nM; `Cc1nc2ccc(-c3ccn4nc(N[C@@H]5CCNCC5(F)F)nc(NC(C)C)c34)nc2n1CC(F)F` [Compound 484, (R)-5-(3-(2,2-Difluoroethyl)-2-methyl-3H-imidazo[4,5-b]pyridin-5-yl)-N^2-(3,3-difluoropiperidin-4-yl)-N^4-isopropylpyrrolo[2,1-f][1,2,4]triazine-2,4-diamine]: 6.4 nM.

As to `Cc1nc2ccc(-c3ccn4nc(N[C@@H]5CCN(C)CC5(F)F)nc(NC(C)C)c34)nc2n1CC(F)F` [Compound 485, (R)—N^2-(3,3-Difluoro-1-methylpiperidin-4-yl)-5-(3-(2,2-difluoroethyl)-2-methyl-3H-imidazo[4,5-b]pyridin-5-yl)-N^4-isopropylpyrrolo[2,1-f][1,2,4]triazine-2,4-diamine], the IC50 was 7.3 nM. For `Cc1nc2ccc(-c3ccn4nc(N[C@@H]5CCNCC5(F)F)nc(NC5COC5)c34)nc2n1CC(F)F` [Compound 486, (R)-5-(3-(2,2-Difluoroethyl)-2-methyl-3H-imidazo[4,5-b]pyridin-5-yl)-N^2-(3,3-difluoropiperidin-4-yl)-N^4-(oxetan-3-yl)pyrrolo[2,1-f][1,2,4]triazine-2,4-diamine], the IC50 was 7830 nM. As for `Cc1nc2ccc(-c3ccn4nc(N[C@@H]5CCN(C)CC5(F)F)nc(NC5COC5)c34)nc2n1CC(F)F` [Compound 487, (R)—N2-(3,3-Difluoro-1-methylpiperidin-4-yl)-5-(3-(2,2-difluoroethyl)-2-methyl-3H-imidazo[4,5-b]pyridin-5-yl)-N4-(oxetan-3-yl)pyrrolo[2,1-f][1,2,4]triazine-2,4-diamine], the IC50 is 3.8 nM. `Cc1nc2ccc(-c3ccn4nc(N[C@H]5CC[C@](C)(O)CC5)nc(N)c34)nc2n1CC(F)F` [Compound 692, (1r,4r)-4-((4-Amino-5-(3-(2,2-difluoroethyl)-2-methyl-3H-imidazo[4,5-b]pyridin-5-yl)pyrrolo[2,1-f][1,2,4]triazin-2-yl)amino)-1-methylcyclohexan-1-ol]: the IC50 stood at 0.9 nM. Turning to `CC(=O)N1C[C@H](F)[C@H](Nc2nc(N)c3c(-c4ccc5nc(C)n(CC(F)F)c5n4)ccn3n2)C1` [Compound 700, 1-((3R,4S)-3-((4-Amino-5-(3-(2,2-difluoroethyl)-2-methyl-3H-imidazo[4,5-b]pyridin-5-yl)pyrrolo[2,1-f][1,2,4]triazin-2-yl)amino)-4-fluoropyrrolidin-1-yl)ethan-1-one], the IC50 was 1 nM. Consider `Cc1nc2ccc(-c3ccn4nc(N[C@@H]5CN(C6COC6)C[C@@H]5F)nc(N)c34)nc2n1CC(F)F` [Compound 701, 5-(3-(2,2-Difluoroethyl)-2-methyl-3H-imidazo[4,5-b]pyridin-5-yl)-N^2-((3R,4S)-4-fluoro-1-(oxetan-3-yl)pyrrolidin-3-yl)pyrrolo[2,1-f][1,2,4]triazine-2,4-diamine], for which the IC50 worked out at 1 nM. Turning to `CC(=O)N1CC[C@H](Nc2nc(N)c3c(-c4ccc5nc(C)n(CC(F)F)c5n4)ccn3n2)[C@H](F)C1` [Compound 715, 1-((3R,4S)-4-((4-Amino-5-(3-(2,2-difluoroethyl)-2-methyl-3H-imidazo[4,5-b]pyridin-5-yl)pyrrolo[2,1-f][1,2,4]triazin-2-yl)amino)-3-fluoropiperidin-1-yl)ethan-1-one], the IC50 was determined as 0.4 nM.

Turning to `CC(=O)N1CC[C@@H](Nc2nc(N)c3c(-c4ccc5nc(C)n(CC(F)F)c5n4)ccn3n2)C(F)(F)C1` [Compound 729, (R)-1-(4-((4-Amino-5-(3-(2,2-difluoroethyl)-2-methyl-3H-imidazo[4,5-b]pyridin-5-yl)pyrrolo[2,1-f][1,2,4]triazin-2-yl)amino)-3,3-difluoropiperidin-1-yl)ethan-1-one], the IC50 was found to be 0.4 nM. On to `Cc1nc2ccc(-c3ccn4nc(N[C@@H]5CCN(C6COC6)CC5(F)F)nc(N)c34)nc2n1CC(F)F` [Compound 730, (R)—N^2-(3,3-Difluoro-1-(oxetan-3-yl)piperidin-4-yl)-5-(3-(2,2-difluoroethyl)-2-methyl-3H-imidazo[4,5-b]pyridin-5-yl)pyrrolo[2,1-f][1,2,4]triazine-2,4-diamine], for which the IC50 turned out to be 2.1 nM. `Cc1nc2ccc(-c3ccn4nc(N[C@H]5CC[C@](C)(O)CC5)nc(N)c34)nc2n1CC(F)(F)F` [Compound 754, (1r,4r)-4-((4-Amino-5-(2-methyl-3-(2,2,2-trifluoroethyl)-3H-imidazo[4,5-b]pyridin-5-yl)pyrrolo[2,1-f][1,2,4]triazin-2-yl)amino)-1-methylcyclohexan-1-ol]: the IC50 is 0.5 nM. For `CC(=O)N1C[C@H](F)[C@H](Nc2nc(N)c3c(-c4ccc5nc(C)n(CC(F)(F)F)c5n4)ccn3n2)C1` [Compound 762, 1-((3R,4S)-3-((4-Amino-5-(2-methyl-3-(2,2,2-trifluoroethyl)-3H-imidazo[4,5-b]pyridin-5-yl)pyrrolo[2,1-f][1,2,4]triazin-2-yl)amino)-4-fluoropyrrolidin-1-yl)ethan-1-one], the IC50 was 1.5 nM.
